Test results from patent US4200631A, “Treating mammalian subject sensitive to indomethacin ulcerogenisis” (priority 1978, dated 1980).

Conditions: rat, in vivo, po

## COc1ccc2c(c1)c(CC(=O)O)c(C)n2C(=O)c1ccc(Cl)cc1 [Indomethacin]
  Therapeutical index LD50/ED50 (B): 8.9
